Measurements from patent publication US20110293525A1, “TUMOR STEM CELLS” (BOARD OF TRUSTEES OF THE UNIVERSITY OF ILLINOIS, priority 2010, published 2011).

Experiments:
[1] = test system: SCC056 parent and HNO cells
Procedure: (§1) Exposure to Radicals: Cells were exposed to varying concentrations of hydrogen peroxide to determine if the adapted cells were resistant to high free radical environments generated by oxygen-based free radicals. Parent and adapted cells were seeded (100 μL) into 96-well microtiter plates in the appropriate media (parent cells in media without NO donor, HNO cells in media supplemented with 600 μM DETA-NONOate) and incubated overnight, reaching approximately 70% confluency by the following day. Cells were treated with varying concentrations (0-1.78 mM) of hydrogen peroxide (30% w/w solution, Sigma H1009, Sigma-Aldrich Corp., St. Louis, Mo., USA) and incubated at 37° C. for an additional 24 h. MTT cell viability/proliferation assays were then performed, as described above. A minimum of four replicate wells were measured for each cell line at each concentration, and assays were repeated in triplicate. Data were normalized against the mean of the untreated control cells, and values lying outside of two standard deviations were removed. Data were plotted as the mean normalized absorbance±standard error.

[2] = test system: T-47D parent and HNO cells
Procedure: as §1

[3] = test system: SCC114 parent and HNO cells
Procedure: as §1

[4] = test system: Hs578t parent and HNO cells
Procedure: as §1

[5] = test system: SCC040 parent and HNO cells
Procedure: as §1

[6] = test system: SCC116 parent and HNO cells
Procedure: as §1

[7] = test system: A549 parent and A549-HNO cells
Procedure: as §1

[8] = test system: SCC016 parent and HNO cells
Procedure: as §1

[9] = test system: four breast adenocarcinoma cell line pairs, parent and HNO cells; details: 24 h exposure, T-47D, Hs578T, BT-20, MCF-7 pairs
Procedure: as §1

[10] = test system: HNSCC parent and HNO cells; details: 24 h exposure, HNSCC cell lines
Procedure: as §1

[11] = test system: BT-20 parent and HNO cells
Procedure: as §1

[12] = test system: MCF-7 parent and HNO cells
Procedure: as §1

[13] = buffer, pH 7.4; cited from earlier work
[14] = test system: five HNSCC cell lines, parent cells; experiment: MTT viability/proliferation in media containing 600 μM DETA-NONOate; type: cell-based, human
Procedure: (§2) Viability of Long Term NO Adapted Cultures: Cells from each of the cell lines were seeded (100 μL) into 96-wellmicrotiter plates and grown for 24 h, to ˜70% confluency. The media was then removed, and the cells were treated with 100-μL media containing varying concentrations (0-600 μM) of DETA-NONOate. Following an additional 72-h incubation period, cell proliferation/viability was assessed using the 3-(4,5-dimethylthiazol-2-yl)-2,5-diphenyltetrazolium bromide (MTT) assay. Media was removed from each well, and 100 μL of 2 mg/mL of MTT (Sigma-Aldrich Corp., St. Louis, Mo. USA) in phosphate buffer saline (PBS) was added. Plates were then placed in an incubator (37° C.) for 5 h, during which time purple formazan crystals formed upon the reaction of the MTT with mitochondrial dehydrogenases of viable cells. Following the incubation period, the MTT solution was removed, and 100 μL of dimethyl sulfoxide (DMSO) was added. The absorbance of the resulting purple solution in each well was read (540 nm) using a SpectraMax® Plus 384 spectrophotometer (Molecular Devices, Inc., Sunnyvale, Calif., USA). Each experiment was independently conducted a minimum of three times, and a minimum of four replicate wells were tested for each cell line at each concentration. Data were normalized to the mean optical density of the untreated control cells. […]

[15] = test system: LP07 parent cells; experiment: MTT viability/proliferation in media containing 300 μM DETA-NONOate; type: cell-based, mouse; details: LP07 cell line
Procedure: as §2

[16] = test system: parent A549 cells; experiment: MTT viability/proliferation in media containing 600 μM DETA-NONOate; type: cell-based, human; details: 600 μM donor, 72 hour period
Procedure: as §2

[17] = test system: tumor cell lines; experiment: MTT viability after 72 h exposure to 0-600 μM DETA-NONOate; type: cell-based; details: doses 0-600 μM
Procedure: as §2

Row | Compound | H2O2 Resistance: highest concentration of H2O2 that the HNO cell lines grow in which the parent cell lines do not survive [1] [mM] | H2O2 Resistance: highest concentration of H2O2 that the HNO cell lines grow in which the parent cell lines do not survive [2] [mM] | H2O2 Resistance: highest concentration of H2O2 that the HNO cell lines grow in which the parent cell lines do not survive [3] [mM] | H2O2 Resistance: highest concentration of H2O2 that the HNO cell lines grow in which the parent cell lines do not survive [4] [mM] | H2O2 Resistance: highest concentration of H2O2 that the HNO cell lines grow in which the parent cell lines do not survive [5] [mM] | H2O2 Resistance: highest concentration of H2O2 that the HNO cell lines grow in which the parent cell lines do not survive [6] [mM] | concentrations at which both parent and HNO cells were killed ([7]; 24 h exposure, A549 and A549-HNO) [mM] | H2O2 Resistance: highest concentration of H2O2 that the HNO cell lines grow in which the parent cell lines do not survive ([7]; A549) [mM] | H2O2 Resistance: highest concentration of H2O2 that the HNO cell lines grow in which the parent cell lines do not survive [8] [mM] | concentrations at which both parent and HNO cells were killed [9] [µM] | concentrations that killed both parent and HNO cells [10] | H2O2 Resistance: highest concentration of H2O2 that the HNO cell lines grow in which the parent cell lines do not survive [11] [mM] | H2O2 Resistance: highest concentration of H2O2 that the HNO cell lines grow in which the parent cell lines do not survive [12] [mM] | half-life [13] | survival of parent cells in media containing the NO donor [14] | survival of parent cells in media containing the NO donor [15] | survival of parent cells placed directly into HNO environment [16] | minimum concentration studied that was completely lethal to the cells [17] [µM]
1 | OO [H2O2, hydrogen peroxide] | 0.028 | 0.028 | 0.55 | 0.0069 | 0.028 | 0.028 | ≥ 0.055 | 0.055 | 0.028 | ≥ 110 | above 55 μM | 0.0069 | 0.014 | – | – | – | – | –
2 | (Z)-1-[2-(2-aminoethyl)-N-(2-ammonioethyl) amino]diazen-1-ium-1,2-diolate [DETA-NONOate] | – | – | – | – | – | – | – | – | – | – | – | – | – | approximately 24 h | completely killed | Analogous results | not able to survive | 600
